What is called Kd is a measure of binding affinity in units of concentration.

The source of these data is publication PMC13309125, “Differential regulation of hepatic macrophage fate by Chi3l1 in metabolic dysfunction-associated steatotic liver disease” (eLife, 2026).

For the test, the target named is T1, Chi3l1 (chitinase 3-like 1, YKL-40) (Mus musculus, UniProt Q61362).
T1 construct: recombinant mouse Chi3l1 (rChi3l1), labelled with His-Tag Labeling Kit RED-tris-NTA
Briefly: microscale thermophoresis (MST); supported by biotin-glucose pull-down competed by unlabeled glucose. It counts as binding. On the technique in general: Microscale thermophoresis detects binding through changes in fluorescence in a small temperature gradient.

T1 sequence (Q61362 30-389): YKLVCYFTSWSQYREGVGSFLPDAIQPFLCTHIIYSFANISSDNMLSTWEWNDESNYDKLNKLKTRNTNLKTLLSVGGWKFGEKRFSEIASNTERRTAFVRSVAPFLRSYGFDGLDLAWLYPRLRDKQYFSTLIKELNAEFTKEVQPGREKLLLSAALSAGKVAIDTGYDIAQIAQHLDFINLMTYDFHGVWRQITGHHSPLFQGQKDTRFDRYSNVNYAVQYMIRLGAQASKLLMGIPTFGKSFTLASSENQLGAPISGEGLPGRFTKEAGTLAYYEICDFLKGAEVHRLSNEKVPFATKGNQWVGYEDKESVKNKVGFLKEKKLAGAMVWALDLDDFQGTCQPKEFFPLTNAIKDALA

`OC[C@H]1OC(O)[C@H](O)[C@@H](O)[C@@H]1O` (stereo partly shown) [glucose] registered a Kd of 4.95 mM.
